From patent EP0128333B1, “Agent for inactivating the mutagenicity of coffee and method therefor” (SUNTORY LIMITED, priority 1983, dated 1984)

Columns and labels:
mouse deodenum = conditions: 0.1 % of hydrogen peroxide; cited from earlier work
[1] = system: Salmonella typhimurium strain TA 100; assay: Mutagenicity / antimutagenic effect, preincubation Salmonella (Ames) test; conditions: Salmonella typhimurium strain TA 100 (histidine-requiring), 48 h, pH 7.4
Protocol: • I) Measuring mutagenicity and the antimutagenic effect • (i) Method: • The preincubation method described in Sugimura & Nagao; Chemical Mutagens, Vol. 6, p. 41, 1981 was used. • (ii) Microorganism: • Histidine-requiring Salmonella typhimurium strain TA 100 (hereunder S. TA 100) was used. • (iii) Preparation of samples: • (a) Instant coffee: • Instant coffee powder was dissolved in distilled water. Predetermined amounts of catalase were also dissolved in distilled water, and 50 µl of each solution was mixed with an equal amount of the aqueous coffee solution. • (b) Regular coffee: • Roasted and ground coffee beans (20 g) were extracted with hot distilled water (250 ml), and the extract was filtered through coffee filter paper No. 12 manufactured by Kalita Co., Ltd. The extract was freeze-dried, and after measuring the weight of the dry product, it was dissolved in distilled water. Predetermined amounts of catalase were also dissolved in distilled water, and 50 pl of each solution was mixed with an equal amount of the aqueous solution of coffee concentrate. • (c) Catalase: • A pure isolate from calf liver as manufactured by P-L Biochemicals, Inc. was used. […] After incubation at 37°C for 48 hours, the number of colonies forming on the plate was counted as revertants.

Neurospora crassa = conditions: cited from earlier work
human cells = conditions: cited from earlier work

For `OO` [hydrogen peroxide], the carcinogenicity (mouse deodenum) is given as “cause malignant tumors”, the “mutagenicity to S. TA 100” value [1] is given as 160 revertants/108 survivors/pmole and the “mutagenic to Neurospora crassa” value (Neurospora crassa) is given as “mutagenic”. The “clastogenic to human cells” value (human cells) was “clastogenic”.
